Experimental data from patent US5622947A, “Benzoheterocyclic compounds and vasopressin antagonist and oxytocin antagonist compositions containing a benzoheterocyclic compound” (Otsuka Pharmaceutical Co., Ltd., priority 1992, dated 1997).
Structures can show the parent of a compound that is named as a salt.

Key:
[1] = target: T1, V2 Recepter (rat kidney plasma membrane preparations) (Rattus norvegicus, UniProt Q00788); assay: V2 Recepter binding assay; settings: [3H]-Arg-vasopressin 4×10^-10 M, 4° C., pH 8.0, rat kidney plasma membrane
T1 construct: rat kidney plasma membrane preparations; from tissue; host or cells: rat kidney plasma membranes
Experimental: Test 2: V2 Recepter binding assay
By using rat kidney plasma membrane preparations prepared according to Hechter's method [by O. Hechter: J. Bio. Chem., 2.53, 3211 (1978)], the plasma membrane (100,000 dpm, 4×10^-10 M) of [^3 H]-Arg-vasopressin and a test compound (0.6 mg, 10^-10 to 10^-5 M) were incubated at 4° C. for 3 hours in 250 μl (in total volume) of 100 mM Tris-HCl buffer (pH=8.0), containing, 5 mM MgCl2, 1 mM EDTA and 0.1% BSA. After the incubation, the mixture, the mixture was filtered by using a glass filter (GF/F) so as to separate the membrane preparation combining with vasopressin, then washed twice with the buffer (5 ml). This glass filter was taken out and mixed with liquid scintillation cocktail. The amount of [^3 H]-vasopressin combining with the membrane was measured by a liquid scintillation counter and the rate of inhibitory effect of the test compound was calculated according to the following equation: Rate of the inhibitory
C1 : the amount of [^3 H]-vasopressin combining with the membrane in the presence of the testcompound of a known amount,
(§1) C0 : the amount of [^3 H]-vasopressin combining with the membrane in the absence of the test compound,
B1 : the amount of [^3 H]-vasopressin combining with the mebrane in the presence of the excess amount of vasopressin (10^-6 M).
The results are expressed as IC50 value, which is the concentration of the test compound required to achieve the inhibitory effect in the rate of 50%, and are shown in the following Table 157.

[2] = target: T2, Oxytocin receptor (uterin muscle membrane preparation) (Rattus norvegicus, UniProt P70536); assay: Oxytocin receptor binding assay; settings: [3H]-oxytocin 10^-9 M, 25°, one hour, pH 8.0, uterin muscle membrane, DES-treated
T2 construct: was homogenized, which was used as a membrane; from tissue; host or cells: uterine muscle membranes from diethylstilbestrol-treated animals
T2 sequence (P70536 1-388): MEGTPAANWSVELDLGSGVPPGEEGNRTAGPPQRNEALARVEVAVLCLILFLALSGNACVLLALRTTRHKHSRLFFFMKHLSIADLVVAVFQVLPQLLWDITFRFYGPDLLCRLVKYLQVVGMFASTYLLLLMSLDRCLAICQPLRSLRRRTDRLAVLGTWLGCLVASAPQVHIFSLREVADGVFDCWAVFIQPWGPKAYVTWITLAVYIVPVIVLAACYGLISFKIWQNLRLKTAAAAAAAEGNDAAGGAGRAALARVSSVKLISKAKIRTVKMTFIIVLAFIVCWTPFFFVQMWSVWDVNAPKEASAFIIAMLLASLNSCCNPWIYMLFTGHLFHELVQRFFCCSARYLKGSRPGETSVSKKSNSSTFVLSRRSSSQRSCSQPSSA
Experimental: Test-5 Oxytocin receptor binding assay
In accordance with Chan's method [by W. Y. Chan, et al.: Endocrinology, 126, 2095-2101 (1990)], the uterin muscle benn injected subcutaneously with diethylstilbe-sterol (DES) the day before and was homogenized, which was used as a membrane prepara tion. The membrane preparation (0.2 mg), [^3 H]-oxytocin (100,000 dpm, 10^-9 M), a test compound (10^-9 to 10^-5 M) were incubated at 25°. for one hour in 100 mM Tris-HCl buffer (pH=8.0, 250 μl) containing 5 mM MgCl2, 1 mM EDTA and 0.1% BSA. The mixture was filtered through a glass filter (GF/F) so as to separate the membrane preparation combining with [^3 H]-oxytocin, then, was washed twicw with the buffer (5 ml). The glass filter was put into a vial and mixed with Aquasole (a liquid scintillation cocktail). The amount of [^3 H]-oxytocin combining w ith the membrane was measured by a liquid scintillation counter. The rate of the inhibitory effect of the test compound was calculated according to the equation as follows: […]
C1 : the amount of [^3 H]-oxytocin combining with the membrane in the presence of a test compound (in known amount),
C0 : the amount of [^3 H]-oxytocin combinig with the membrane in the absence of a test compound,
B: the amount of [^3 H]-oxytocin combining with the membrane in the presence of the excess amount of oxytocin (5×10^-6 M).
The results are expressed as IC50 values, which is the concentration of the test compound required to achieve the inhibitory effect in the rate of 50%.

[3] = target: T3, V1 Recepter (rat liver plasma membrane preparations) (Rattus norvegicus, UniProt P30560); assay: V1 Recepter binding assay; settings: [3H]-Arg-vasopressin 2×10^-10 M, 37° C., 10 minutes, pH 8.0, rat liver plasma membrane
T3 construct: rat liver plasma membrane preparations; from tissue; host or cells: rat liver plasma membranes
Experimental: Test-1: V1 Recepter binding assay
By using rat liver plasma membrane preparations prepared according to Ichiraha's method [by Akira Ichihara: J. Bio. Chem., 258, 9283 (1983)], the plasma membrane (50,000 dpm, 2×10^-10 M) of [^3 H]-Arg-vasopressin and a test compound (60 μg, 10^-8 to 10^-4 M) were incubated at 37° C. for 10 minutes in 250 μl (in total volume) of 100 mM Tris-HCl buffer (pH=8.0), containing 5 mM MgCl2, 1 mM EDTA and 0.1% BSA. After the incubation, the mixture was filtered three times by using a glass filter (GF/F) so as to separate the membrane preparation by combining with vasopressin and then washed with the buffer (5 ml). This glass filter was taken out and mixed with a liquid of scintillation cocktail. The amount of [^3 H]-vasopressin combining with the membrane was measured by liquid scintillation counter and the rate of inhibitory effect of the test compound was calculated according to the following equation: […]
C1 : the amount of [^3 H]-vasopressin combining with the membrane in the presence of the test compound of a known amount,
as §1
B1 : the amount of [^3 H]-vasopressin combining with the membrane in the presence of the excess amount of vasopressin (10^-6 M).
The results are expressed as IC50 value, which is the concentration of the test compound required to achieve the inhitory effect in the rate of 50% and are shown in the following Table 156.

T1 sequence (Q00788 whole entry): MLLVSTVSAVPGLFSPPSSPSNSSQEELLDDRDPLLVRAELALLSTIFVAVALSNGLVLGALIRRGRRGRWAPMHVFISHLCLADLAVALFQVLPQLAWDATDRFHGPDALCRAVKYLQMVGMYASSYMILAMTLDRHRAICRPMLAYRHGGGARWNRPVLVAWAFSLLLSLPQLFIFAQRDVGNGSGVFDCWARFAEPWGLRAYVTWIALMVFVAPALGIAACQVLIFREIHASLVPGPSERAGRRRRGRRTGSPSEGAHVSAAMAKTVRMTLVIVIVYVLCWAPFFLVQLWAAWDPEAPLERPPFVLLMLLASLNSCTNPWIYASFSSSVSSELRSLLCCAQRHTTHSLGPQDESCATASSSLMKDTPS
T3 sequence (P30560 whole entry): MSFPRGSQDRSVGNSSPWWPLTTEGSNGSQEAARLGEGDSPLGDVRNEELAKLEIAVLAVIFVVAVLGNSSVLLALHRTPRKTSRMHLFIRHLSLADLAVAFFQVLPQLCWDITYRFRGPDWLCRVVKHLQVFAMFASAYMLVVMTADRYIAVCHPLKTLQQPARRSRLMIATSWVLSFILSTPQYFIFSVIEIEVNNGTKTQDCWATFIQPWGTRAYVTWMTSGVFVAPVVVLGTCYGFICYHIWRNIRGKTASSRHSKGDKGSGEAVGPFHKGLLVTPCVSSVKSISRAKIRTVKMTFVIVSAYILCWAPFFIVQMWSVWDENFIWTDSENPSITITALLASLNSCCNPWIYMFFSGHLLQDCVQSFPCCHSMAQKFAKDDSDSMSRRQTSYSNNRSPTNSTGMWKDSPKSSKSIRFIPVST

SMILES | IC50 [1] [nM] | IC50 [2] [nM] | IC50 [3] [nM]
Cc1cc(NC(=O)c2ccccc2Cl)ccc1C(=O)N1CCCC(OCCn2cnnn2)c2cc(Cl)ccc21 (stereo not shown) [Example 93, 5-[2-(1,2,3,4-Tetrazol-1-yl)ethoxy]-7-chloro-1-[2-methyl-4-(2-chlorobenzoylamino)benzoyl]-2,3,4,5-tetrahydro-1H-benzoazepine] | 14 | – | –
Cc1cc(NC(=O)c2ccccc2Cl)ccc1C(=O)N1CCCC(OCCn2cncn2)c2cc(Cl)ccc21 (stereo not shown) [Example 92] | 7.4 | – | –
C=CCOC1CCCN(C(=O)c2ccc(NC(=O)c3ccccc3C)cc2)c2ccc(Cl)cc21 (stereo not shown) [Example 64, 5-Allyloxy-7-chloro-1-[4-(2-methylbenzoylamino)benzoyl]-2,3,4,5-tetrahydro-1H-benzoazepine] | – | – | 45
C=CCN(C)CCC1CCCN(C(=O)c2ccc(NC(=O)c3ccccc3Cl)cc2C)c2ccc(F)cc21 (stereo not shown) [Example 129, 5-[2-(N-Allyl-N-methylamino)ethyl]-7-fluoro-1-[2-methyl-4-(2-chlorobenzoylamino)benzoyl]-2,3,4,5-tetrahydro-1H-benzoazepine] | 12 | – | –
COc1cc(NC(=O)c2ccccc2C)ccc1C(=O)N1CCC=C(CC(=O)N2CCN(C)CC2)c2cc(F)ccc21 [Example 86, 5-(4-Methyl-1-piperazinyl)carbonylmethyl-7-fluoro-1-[2-methoxy-4-(2-methylbenzoylamino)benzoyl]-2,3,-dihydro-1H-benzoazepine] | 59 | – | –
C=CCNCCC1CCCN(C(=O)c2ccc(NC(=O)c3ccccc3Cl)cc2C)c2ccc(F)cc21 (stereo not shown) [Example 101, 5-(2-Allylaminoethyl)-7-fluoro-1-[2-methyl-4-(2-chlorobenzoylamino)benzoyl]-2,3,4,5-tetrahydro-1H-benzoazepine] | 7 | 5300 | –
Cc1ccccc1C(=O)Nc1ccc(C(=O)N2CCCC(CC(=O)N(C)C)c3cc(Cl)ccc32)cc1 (stereo not shown) [Example 111, 5-Dimethylaminocarbonylmethyl-7-chloro-1-[4-(2-methylbenzoylamino)benzoyl]-2,3,4,5-tetrahydro-1H-benzoazepine] | – | 250 | –
CC(=O)NC1CCN(CCCCOc2ccc(Cl)c(C(=O)Nc3ccc(C(=O)N4CCCCc5cc(Cl)ccc54)cc3)c2)CC1 [Example 184] | – | 3670 | –
COc1cc(NC(=O)c2ccccc2C)ccc1C(=O)N1CCCC(CC(=O)N2CCC(N(C)C)CC2)c2cc(F)ccc21 (stereo not shown) [Example 110] | – | 220 | –
COc1cc(C(=O)N2CCCC(CC(=O)N3CCN(C)CC3)c3cc(Cl)ccc32)ccc1NC(=O)c1ccccc1Cl (stereo not shown) [Example 117, 5-(4-Methyl-1-piperazinyl)carbonylmethyl-7-chloro-1-[3-methoxy-4-(2-chlorobenzoylamino)benzoyl]-2,3,4,5-tetrahydro-1H-benzoazepine.cndot.hydrochlorid] | – | 320 | –

Other lines, results leading:

IC50 [1] [nM] | IC50 [2] [nM] | IC50 [3] [nM] | SMILES
7.5 | – | – | Cc1cc(NC(=O)c2ccccc2Cl)ccc1C(=O)N1CCCC(CCn2cncn2)c2cc(Cl)ccc21 (stereo not shown) [Example 105, 5-[2-(1,2,4-Triazol-1-yl)ethyl]-7-chloro-1-[2-methyl-4-(2-chlorobenzoylamino)benzoyl]-2,3,4,5-tetrahydro-1H-benzoazepine]
4.7 | 4040 | – | C=CCN(C)CCC1CCCN(C(=O)c2ccc(NC(=O)c3ccccc3Cl)cc2C)c2ccc(Cl)cc21 (stereo not shown) [Example 100]
14 | – | – | CC(=O)NC1CCN(CCC2CCCN(C(=O)c3ccc(NC(=O)c4ccccc4Cl)cc3C)c3ccc(Cl)cc32)CC1 (stereo not shown) [Example 76, 5-[2-(4-Acetylamino-1-piperidinyl)ethyl]-7-chloro-1-[2-methyl-4-(2-chlorobenzoylamino)benzoyl]-2,3,4,5-tetrahydro-1H-benzoazepine]
8 | 3000 | – | C#CCNCCC1CCCN(C(=O)c2ccc(NC(=O)c3ccccc3Cl)cc2C)c2ccc(Cl)cc21 (stereo not shown) [Example 103, 5-(2-Propargylaminoethyl)-7-chloro-1-[2-methyl-4-(2-chlorobenzoylamino)benzoyl]-2,3,4,5-tetrahydro-1H-benzoazepine.cndot.hydrochloride]
7.1 | 2900 | – | Cc1cc(NC(=O)c2ccccc2Cl)ccc1C(=O)N1CCCC(CCNC2CC2)c2cc(Cl)ccc21 (stereo not shown) [Example 102, 5-(2-Cyclopropylaminoethyl)-7-chloro-1-[2-methyl-4-(2-chlorobenzoylamino)benzoyl]-2,3,4,5-tetrahydro-1H-benzoazepine.cndot.hydrochloride]
12 | 2800 | – | Cc1cc(NC(=O)c2ccccc2Cl)ccc1C(=O)N1CCCC(CCn2ncnn2)c2cc(Cl)ccc21 (stereo not shown) [Example 99]
7.2 | 4070 | – | Cc1cc(NC(=O)c2ccccc2Cl)ccc1C(=O)N1CCCC(CCN2CCCC2)c2cc(Cl)ccc21 (stereo not shown) [Example 97, 5-[2-(1-Pyrrolidinyl)ethyl]-7-chloro-1-[2-methyl-4-(2-chlorobenzoylamino)benzoyl]-2,3,4,5-tetrahydro-1H-benzoazepine.cndot.hydrochloride]
9 | – | – | Cc1cc(NC(=O)c2ccccc2Cl)ccc1C(=O)N1CCCC(CCn2cnnn2)c2cc(Cl)ccc21 (stereo not shown) [Example 98]
9 | 4400 | – | Cc1cc(NC(=O)c2ccccc2Cl)ccc1C(=O)N1CCCC(CCN2CCCCC2)c2cc(Cl)ccc21 (stereo not shown) [Example 96, 5-[2-(1-Piperidinyl)ethyl]-7-chloro-1-[2-methyl-4-(2-chlorobenzoylamino)benzoyl]-2,3,4,5-tetrahydro-1H-benzoazepine.cndot.hydrochloride]
32 | – | – | CC(=O)NC1CCN(CCOC2CCCN(C(=O)c3ccc(NC(=O)c4ccccc4Cl)cc3C)c3ccc(Cl)cc32)CC1 (stereo not shown) [Example 75, 5-[2-(4-Acetylamino-1-piperidinyl)ethoxy]-7-chloro-1-[2-methyl-4-(2-chlorobenzoylamino)benzoyl]-2,3,4,5-tetrahydro-1H-benzoazepine]
17 | – | – | Cc1cc(NC(=O)c2ccccc2Cl)ccc1C(=O)N1CCCC(CCN2CCOCC2)c2cc(Cl)ccc21 (stereo not shown) [Example 95]
